Test results from patent US10800788B2, “4-(aryl)-N-(3-alkoxyfuro[2,3-b]pyrazin-2-yl)-piperazine-1-carboxamide derivative and antiproliferative effect thereof” (Dongguk University Industry-Academic Cooperation Foundation, priority 2016, dated 2020).

What was measured:
[1] = test system: MDA-MB-231 (breast cancer) cell line; test: Cell growth inhibition experiment (SRB), MDA-MB-231; assay type: cell-based, human; details: Homo sapiens, MDA-MB-231, 96 h, 96 hours incubation
Description: (§1) The cell lines below were used in order to confirm the efficacy of the compounds synthesized in Examples 1 to 60. Human PANC-1 (pancreatic cancer) and MDA-MB-231 (breast cancer) cell lines were obtained from the American Type Culture Collection (ATCC; Manassas, Va.); and HN31 (head and neck cancer) and UMRC2 (kidney cancer) cell lines were secured from the United States National Institutes of Health (Bethesda, Md.). The MDA-MB-231, UMRC2, HN31, and PANC-1 cell lines were cultured in Dulbecco modified Eagle medium (DMEM; Invitrogen, Carlsbad, Calif.) containing FBS (10%), HEPES (10 mM), penicillin (100 U/mL), and streptomycin (100 μg/mL). All cell lines were cultured in an incubator (37° C., 5% CO2).
(§2) The 4-(aryl)-N-(3-alkoxyfuro[2,3-b]pyrazin-2-yl)-piperazine-1-carboxamide derivative compounds synthesized according to Examples 1 to 60 of the present invention were treated with various human tissue-derived cancer cell lines cultured according to Experimental Example 1, and thus the inhibitory effect of the growth of human cancer cells was confirmed. The cell growth inhibition experiment was conducted using the sulforhodamine B (SRB) technique (Skehan et al., J. National Cancer Institute, 1990, 82: 1107-1112). Specifically, each cell line was seeded in a 96-well plate at a density of 2 to 3×10^3 cells/well, cultured overnight, and then treated with the 4-(aryl)-N-(3-alkoxyfuro[2,3-b]pyrazin-2-yl)-piperazine-1-carboxamide derivative compounds of the present invention. The experiment was repeated 3 times for each compound. Cells treated with each compound were additionally incubated for 96 hours, fixed with 10% trichloroacetic acid (TCA), and then left at 4° C. for 1 hour. The resultant was washed 3 times with distilled water. Thereafter, each cell was treated with 0.4% sulforhodamine B dissolved in 1% acetic acid, stained for 30 minutes, and then washed 4 times with 1% acetic acid. The resultant was dried in the air. After shaking the resultant in Tris solution (10 mM) for 5 minutes, the absorbance was measured at 530 nm using a Benchmark Plus Microplate reader (Bio-Rad Laboratories, Hercules, Calif.).
(§3) In order to convert the OD530 value to the number of viable cells per each well, the measured OD530 value was compared to the standard OD530-vs.-cell number curve of each cell line. The percent survival was calculated using the following formula: % survival=Nlive cells(test)/Nlive cells(control)×100

[2] = test system: UMRC2 (kidney cancer) cell line; test: Cell growth inhibition experiment (SRB), UMRC2; assay type: cell-based, human; details: Homo sapiens, UMRC2, 96 h, 96 hours incubation
Description: as §1, §2, §3

[3] = test system: PANC-1 (pancreatic cancer) cell line; test: Cell growth inhibition experiment (SRB), PANC-1; assay type: cell-based; details: Homo sapiens, PANC-1, 96 h, 96 hours incubation
Description: as §1, §2, §3

[4] = test system: HN31 (head and neck cancer) cell line; test: Cell growth inhibition experiment (SRB), HN31; assay type: cell-based, human; details: Homo sapiens, 96 h, 96 hours incubation
Description: as §1, §2, §3

A549 = test: Cell growth inhibition experiment (SRB), A549; assay type: cell-based; details: Homo sapiens, A549, 96 h, 96 hours incubation, read-out: IC50 (μM) for cancer cell line A549
Description: as §2, §3

HEK293 = test: Cell growth inhibition experiment (SRB), HEK293; assay type: cell-based, human; details: Homo sapiens, HEK293, 96 h, 96 hours incubation, read-out: IC50 (μM) for cancer cell line HEK293
Description: as §2, §3

HUVEC = test: Cell growth inhibition experiment (SRB), HUVEC; assay type: cell-based, human; details: Homo sapiens, HUVEC, 96 h, 96 hours incubation, read-out: IC50 (μM) […]
Description: as §2, §3

HT29 = test: Cell growth inhibition experiment (SRB), HT29; assay type: cell-based, human; details: Homo sapiens, HT-29, 96 h, 96 hours incubation, read-out: IC50 (μM) for cancer cell line HT29
Description: as §2, §3

SK-OV-3 = test: Cell growth inhibition experiment (SRB), SK-OV-3; assay type: cell-based, human; details: Homo sapiens, SK-OV-3, 96 h, 96 hours incubation, read-out: IC50 (μM) for cancer cell line SK-OV-3
Description: as §2, §3

Compound	IC50 [1] [µM]	IC50 [2] [µM]	IC50 [3] [µM]	IC50 [4] [µM]	IC50 (A549) [µM]	IC50 (HEK293) [µM]	IC50 (HUVEC) [µM]	IC50 (HT29) [µM]	IC50 (SK-OV-3) [µM]
COc1nc2oc(Cl)cc2nc1NC(=O)N1CCN(c2cc(C)cc(F)c2)CC1 [Example 46, N-(6-Chloro-3-methoxyfuro[2,3-b]pyrazin-2-yl)-4-(3-fluoro-5-methylphenyl)piperazine-1-carboxamide]	1.68	1.35	1.94	1.83	< 2.5	< 2.5	< 2.5	< 2.5	< 2.5
COc1cc(OCCN(C)C)cc(N2CCN(C(=O)Nc3nc4cc(Cl)oc4nc3OC)CC2)c1 [Example 44, N-(6-Chloro-3-methoxyfuro[2,3-b]pyrazin-2-yl)-4-(3-(2-(dimethylamino)ethoxy)-5-methoxyphenyl)piperazine-1-carboxamide]	0.43	0.38	0.61	0.53	0.36	0.71	0.66	0.87	< 2.5
CCOc1nc2oc(C)cc2nc1NC(=O)N1CCN(c2cc(F)cc(F)c2)CC1 [Example 37, 4-(3,5-Difluorophenyl)-N-(3-ethoxy-6-methylfuro[2,3-b]pyrazin-2-yl)piperazine-1-carboxamide]	0.15	0.36	0.51	0.68	0.44	1.63	1.25	1.28	2.13
COc1nc2occc2nc1NC(=O)N1CCN(c2cc(F)cc(C(F)(F)F)c2)CC1 [Example 8, 4-(3-Fluoro-5-(trifluoromethyl)phenyl)-N-(3-methoxyfuro[2,3-b]pyrazin-2-yl)piperazine-1-carboxamide]	0.98	0.88	1.98	< 2.5	< 2.5	< 2.5	< 2.5	< 2.5	< 2.5
CCOc1nc2oc(Cl)cc2nc1NC(=O)N1CCN(c2cc(F)cc(C(F)(F)F)c2)CC1 [Example 58, N-(6-Chloro-3-ethoxyfuro[2,3-b]pyrazin-2-yl)-4-(3-fluoro-5-(trifluoromethyl)phenyl)piperazine-1-carboxamide]	< 2.5	< 2.5	< 2.5	< 2.5	< 2.5	< 2.5	< 2.5	< 2.5	< 2.5
COc1cc(OC)cc(N2CCN(C(=O)Nc3nc4ccoc4nc3OC)CC2)c1 [Example 1, 4-(3,5-Dimethoxyphenyl)-N-(3-methoxyfuro[2,3-b]pyrazin-2-yl)piperazine-1-carboxamide]	0.12	0.03	0.53	0.27	1.13	0.63	0.12	0.31	0.27
CCOc1nc2occc2nc1NC(=O)N1CCN(c2cc(C)cc(OC)c2)CC1 [Example 12, N-(3-Ethoxyfuro[2,3-b]pyrazin-2-yl)-4-(3-methoxy-5-methylphenyl)piperazine-1-carboxamide]	0.05	0.14	0.24	0.33	1.28	1.55	0.27	1.3	1.29
CCOc1nc2occc2nc1NC(=O)N1CCN(c2cc(C(F)(F)F)cc(C(F)(F)F)c2)CC1 [Example 19, 4-(3,5-Bis(trifluoromethyl)phenyl)-N-(3-ethoxyfuro[2,3-b]pyrazin-2-yl)piperazine-1-carboxamide]	0.34	0.68	1.23	0.36	0.44	1.23	0.68	0.71	< 2.5
CCOc1nc2oc(Cl)cc2nc1NC(=O)N1CCN(c2cc(C)cc(OC)c2)CC1 [Example 52, N-(6-Chloro-3-ethoxyfuro[2,3-b]pyrazin-2-yl)-4-(3-methoxy-5-methylphenyl)piperazine-1-carboxamide]	1.18	0.68	1.68	1.36	1.87	1.74	1.62	< 2.5	< 2.5
COc1nc2occc2nc1NC(=O)N1CCN(c2cc(F)cc(F)c2)CC1 [Example 7, 4-(3,5-difluorophenyl)-N-(3-methoxyfuro[2,3-b]pyrazin-2-yl)piperazine-1-carboxamide]	1.78	1.78	1.89	< 2.5	< 2.5	< 2.5	< 2.5	< 2.5	< 2.5
COc1nc2oc(C)cc2nc1NC(=O)N1CCN(c2cc(F)cc(C(F)(F)F)c2)CC1 [Example 28, 4-(3-Fluoro-5-(trifluoromethyl)phenyl)-N-(3-methoxy-6-methylfuro[2,3-b]pyrazin-2-yl)piperazine-1-carboxamide]	< 2.5	< 2.5	< 2.5	< 2.5	< 2.5	< 2.5	< 2.5	< 2.5	< 2.5
CCOc1nc2occc2nc1NC(=O)N1CCN(c2cccc(OC(F)(F)F)c2)CC1 [Example 20, N-(3-Ethoxyfuro[2,3-b]pyrazin-2-yl)-4-(3-(trifluoromethoxy)phenyl)piperazine-1-carboxamide]	0.25	1.63	0.36	0.36	0.24	0.12	0.21	0.62	0.22
COc1cc(OCCN(C)C)cc(N2CCN(C(=O)Nc3nc4ccoc4nc3OC)CC2)c1 [Example 4, 4-(3-(2-(Dimethylamino)ethoxy)-5-methoxyphenyl)-N-(3-methoxyfuro[2,3-b]pyrazin-2-yl)piperazine-1-carboxamide]	1.13	0.54	0.68	1.54	< 2.5	< 2.5	1.25	< 2.5	< 2.5
COc1nc2occc2nc1NC(=O)N1CCN(c2cc(C)cc(F)c2)CC1 [Example 6, 4-(3-Fluoro-5-methylphenyl)-N-(3-methoxyfuro[2,3-b]pyrazin-2-yl)piperazine-1-carboxamide]	1.13	1.21	0.98	1.98	1.78	1.83	< 2.5	< 2.5	< 2.5
CCOc1nc2oc(Cl)cc2nc1NC(=O)N1CCN(c2cc(C)cc(C)c2)CC1 [Example 55, N-(6-Chloro-3-ethoxyfuro[2,3-b]pyrazin-2-yl)-4-(3,5-dimethylphenyl)piperazine-1-carboxamide]	0.32	0.68	1.68	1.75	< 2.5	< 2.5	< 2.5	< 2.5	< 2.5
